Several values for one entry are separate records, joined by “and”; a condition that tells them apart may be missing. Identical values can stand only once.
Key:
[1] = Phase I toxicity (Common Toxicity Criteria), 72-h continuous infusion; conditions: for MTD: 72-h infusion
Source text: (§1) Brrtish Joumal of Cancer(1998) 78(10). 1329-1336 @ 1998 Cancer Research Campaign A phase I clinical and pharmacokinetic study of the new topoisomerase inhibitor G1147211 given as a 72-h continuous infusion L Paz-Aresl*, R Kunkal 2, D DeMarial-3, J Cassidy' 4, M Alden3, P Beranek2, S Kaye', D Littlefield2, D Reilly3, S Depee2, P Wissel2, C Twelves' and P O'Dwyer3 CRC Department of Medical Oncology. University of Glasgow. Westem Infirmary Hospital. Glasgow Gll 6NT. UK; 2Glaxo Wellcome Research. Five Moore Drive. Research Triangle Park. NC 27709. USA; 'Fox Chase Cancer Center. 7701 Burholme Avenue. Philadelphia, PA 19111. USA: 4Thomas Jefferson University. Kimmel Cancer Institute. Bluemle Life Sciences Building. 233 S. 10th Street. Suite 502. Philadelphia. PA 19107. […] This study was designed to determine the maximum tolerated dose of Gl147211 as a 72-h infusion and to describe its pharmacokinetics and pharmacodynamics on this schedule. In a single-arm, rising-dose study in patients with advanced cancer, eight cohorts of three or more patients received 72-h infusions of G1147211 at doses ranging from 0.25 to 2.5 mg m-2 day-'. […] Whole-blood G1147211 lactone, total blood and total concentrations were measured during and over the 12 h following the infusion. […] Extensive phase 11 evaluation of this compound and further phase I trials evaluating more prolonged infusions are ongoing. Keywords: G1147211: GG211: camptothecin analogues: topoisomerase I inhibitor; phase I trial; pharmacokinetics: pharmacodynamics: continuous infusion GI 147211 (7-4 methyl piperazinomethilene)- 10.1 1 -ethylenedioxy - 20-(S camptothecin: Figure 1) is a totally synthetic analogue of camptothecin. a natural product isolated from Camptotheca acuminata (WAall et al. 1966: Emerson et al. 1995). […] The nuclear enzyvme DNA topoisomerase I. x hich relaxes DNA supercoils arising during, replication and gene tran- scription. has been identified as the specific targret of camptothecin (Hsianer and Liu. 1988: Wall and Wani. 1995).

refractory solid tumours = assay: Anti-tumour activity in phase I patients; assay type: in vivo
Source text: as §1

[2] = tested on: neutrophils and platelets; assay: Pharmacodynamics: sigmoid Emax (Hill) fit of % decrease in neutrophils or platelets vs lactone Css; assay type: in vivo, patients; conditions: sigmoid Emax model
Source text: (§2) Brrtish Joumal of Cancer(1998) 78(10). 1329-1336 @ 1998 Cancer Research Campaign A phase I clinical and pharmacokinetic study of the new topoisomerase inhibitor G1147211 given as a 72-h continuous infusion L Paz-Aresl*, R Kunkal 2, D DeMarial-3, J Cassidy' 4, M Alden3, P Beranek2, S Kaye', D Littlefield2, D Reilly3, S Depee2, P Wissel2, C Twelves' and P O'Dwyer3 CRC Department of Medical Oncology. University of Glasgow. Westem Infirmary Hospital. Glasgow Gll 6NT. UK; 2Glaxo Wellcome Research. Five Moore Drive. Research Triangle Park. NC 27709. USA; 'Fox Chase Cancer Center. 7701 Burholme Avenue. Philadelphia, PA 19111. USA: 4Thomas Jefferson University. Kimmel Cancer Institute. Bluemle Life Sciences Building. 233 S. 10th Street. Suite 502. Philadelphia. PA 19107. […] This study was designed to determine the maximum tolerated dose of Gl147211 as a 72-h infusion and to describe its pharmacokinetics and pharmacodynamics on this schedule. In a single-arm, rising-dose study in patients with advanced cancer, eight cohorts of three or more patients received 72-h infusions of G1147211 at doses ranging from 0.25 to 2.5 mg m-2 day-'. […] Whole-blood G1147211 lactone, total blood and total concentrations were measured during and over the 12 h following the infusion. […] Extensive phase 11 evaluation of this compound and further phase I trials evaluating more prolonged infusions are ongoing. […]

[3] = Initial stability studies of infusion solution; assay type: physicochemical; conditions: 5% dextrose (average pH 5)
Source text: as §2

melanoma cell line Lox = tested on: melanoma cell line Lox; design: method as in Emerson et al. 1995; conditions: ref Emerson et al. 1995; cited from earlier work
in vitro models = tested on: in vitro models; design: method as in Slichenmyer et al. 1993: Emerson et al. 1995; conditions: ref Slichenmyer et al. 1993: Emerson et al. 1995; cited from earlier work
[4] = tested on: colon (HT29 and SW480), breast (MX 1), ovarian (SKOV3), prostate (PC3) and lung (H460) carcinoma xenografts; design: method as in Emerson et al. 1986. 1993. 1994. 1995; conditions: nude mice; ref Emerson et al. 1986. 1993. 1994. 1995; cited from earlier work
[5] = heavy pretreatment, 1.2 mg m-2 day-1, n=3
[6] = heavy pretreatment, 1.5 mg m-2 day-1, n=4
[7] = heavy pretreatment, 2.0 mg m-2 day-1, n=1
[8] = minimal pretreatment, 1.5 mg m-2 day-1, n=5
[9] = minimal pretreatment, 1.75 mg m-2 day-1, n=3
[10] = minimal pretreatment, 2.0 mg m-2 day-1, n=10
[11] = minimal pretreatment, 2.5 mg m-2 day-1, n=2

CC[C@@]1(O)C(=O)OCc2c1cc1n(c2=O)Cc2c-1nc1cc3c(cc1c2CN1CCN(C)CC1)OCCO3 [GI147211, 7-4 methyl piperazinomethilene)-10.1 1-ethylenedioxy - 20-(S camptothecin]
Anaemia, patients with worst CTC grade 1 ([1]; 0.25 mg m-2 day-1, n=6): 2 patients | Thrombocytopenia, patients with worst CTC grade 1 ([1]; 0.25 mg m-2 day-1, n=6): 1 patients | Anaemia, patients with worst CTC grade 1 ([1]; 0.50 mg m-2 day-1, n=4): 1 patients | Leucopenia, patients with worst CTC grade 1 ([1]; 0.50 mg m-2 day-1, n=4): 1 patients | Anaemia, patients with worst CTC grade 3 ([1]; 1.0 mg m-2 day-1, n=5): 1 patients | Leucopenia, patients with worst CTC grade 2 ([1]; 1.0 mg m-2 day-1, n=5): 1 patients | Leucopenia, patients with worst CTC grade 3 ([1]; 1.0 mg m-2 day-1, n=5): 1 patients | Neutropenia, patients with worst CTC grade 1 ([1]; 1.0 mg m-2 day-1, n=5): 1 patients | Thrombocytopenia, patients with worst CTC grade 1 ([1]; 1.0 mg m-2 day-1, n=5): 1 patients | Thrombocytopenia, patients with worst CTC grade 4 ([1]; 1.0 mg m-2 day-1, n=5): 1 patients | Patients with central venous catheter associated infections requiring i.v. antibiotics ([1]; 39 patients treated through central venous catheters): Five | Patients complaining of headache while receiving the infusion ([1]; all doses): Twenty | Patients with alopecia ([1]; all doses, 44 patients): 14 patients | Patients with grade I or II nausea ([1]; all doses, 44 patients): Twenty-six | Patients with grade I or II vomiting ([1]; all doses, 44 patients): 16 patients | Patients with grade III vomiting ([1]; all doses, 44 patients): Three | Patients with mild diarrhoea ([1]; all doses, 44 patients): seven | Patients with grade II or III anaemia ([1]; doses > 1.2 mg m-2 day-1): 15 of 29 | Phlebitis at the site of venepuncture ([1]; five patients infused through peripheral veins, doses < 1.0 mg m-2 day-1): All of these patients developed phlebitis | Recommended phase II dose ([1]; heavily pretreated patients): 1.2 mg m-2 day-1 | MTD ([1]; heavily pretreated patients): 1.2 mg m-2 day-1 | Time of platelet nadir after the beginning of the infusion ([1]; heavily pretreated, 1.2 mg m-2 day-1, range 15-22): 18 days | Platelet nadir, median count ([1]; heavily pretreated, 1.2 mg m-2 day-1, range 31-93): 7.5e+10 L⁻¹ | Anaemia, patients with worst CTC grade 1 [1, 5]: 1 patients | Anaemia, patients with worst CTC grade 2 [1, 5]: 2 patients | Leucopenia, patients with worst CTC grade 1 [1, 5]: 1 patients | Leucopenia, patients with worst CTC grade 2 [1, 5]: 1 patients | Neutropenia, patients with worst CTC grade 1 [1, 5]: 1 patients | Thrombocytopenia, patients with worst CTC grade 1 [1, 5]: 2 patients | Thrombocytopenia, patients with worst CTC grade 3 [1, 5]: 1 patients | Anaemia, patients with worst CTC grade 1 [1, 6]: 1 patients | Anaemia, patients with worst CTC grade 2 [1, 6]: 2 patients | Leucopenia, patients with worst CTC grade 3 [1, 6]: 2 patients | Leucopenia, patients with worst CTC grade 4 [1, 6]: 1 patients | Neutropenia, patients with worst CTC grade 4 [1, 6]: 3 patients | Thrombocytopenia, patients with worst CTC grade 4 [1, 6]: 3 patients | Anaemia, patients with worst CTC grade 3 [1, 7]: 1 patients | Leucopenia, patients with worst CTC grade 4 [1, 7]: 1 patients | Neutropenia, patients with worst CTC grade 4 [1, 7]: 1 patients | Thrombocytopenia, patients with worst CTC grade 4 [1, 7]: 1 patients | Induction of diarrhoea ([1]; in contrast to irinotecan): does not induce diarrhoea | Patients with grade IV neutropenia who developed fever ([1]; in vivo, iv): Five of the ten | Anaemia, patients with worst CTC grade 2 [1, 8]: 2 patients | Anaemia, patients with worst CTC grade 3 [1, 8]: 2 patients | Leucopenia, patients with worst CTC grade 2 [1, 8]: 2 patients | Leucopenia, patients with worst CTC grade 4 [1, 8]: 1 patients | Neutropenia, patients with worst CTC grade 3 [1, 8]: 2 patients | Neutropenia, patients with worst CTC grade 4 [1, 8]: 1 patients | Thrombocytopenia, patients with worst CTC grade 1 [1, 8]: 1 patients | Thrombocytopenia, patients with worst CTC grade 2 [1, 8]: 1 patients | Thrombocytopenia, patients with worst CTC grade 3 [1, 8]: 1 patients | Thrombocytopenia, patients with worst CTC grade 4 [1, 8]: 1 patients | Anaemia, patients with worst CTC grade 1 [1, 9]: 1 patients | Anaemia, patients with worst CTC grade 3 [1, 9]: 1 patients | Leucopenia, patients with worst CTC grade 3 [1, 9]: 1 patients | Neutropenia, patients with worst CTC grade 3 [1, 9]: 1 patients | Anaemia, patients with worst CTC grade 1 [1, 10]: 4 patients | Anaemia, patients with worst CTC grade 2 [1, 10]: 4 patients | Anaemia, patients with worst CTC grade 3 [1, 10]: 1 patients | Leucopenia, patients with worst CTC grade 1 [1, 10]: 4 patients | Leucopenia, patients with worst CTC grade 2 [1, 10]: 1 patients | Leucopenia, patients with worst CTC grade 3 [1, 10]: 1 patients | Leucopenia, patients with worst CTC grade 4 [1, 10]: 2 patients | Neutropenia, patients with worst CTC grade 1 [1, 10]: 2 patients | Neutropenia, patients with worst CTC grade 2 [1, 10]: 2 patients | Neutropenia, patients with worst CTC grade 4 [1, 10]: 3 patients | Thrombocytopenia, patients with worst CTC grade 1 [1, 10]: 2 patients | Thrombocytopenia, patients with worst CTC grade 2 [1, 10]: 1 patients | Thrombocytopenia, patients with worst CTC grade 3 [1, 10]: 4 patients | Anaemia, patients with worst CTC grade 3 [1, 11]: 1 patients | Leucopenia, patients with worst CTC grade 3 [1, 11]: 1 patients | Leucopenia, patients with worst CTC grade 4 [1, 11]: 1 patients | Neutropenia, patients with worst CTC grade 4 [1, 11]: 2 patients | Thrombocytopenia, patients with worst CTC grade 3 [1, 11]: 1 patients | Thrombocytopenia, patients with worst CTC grade 4 [1, 11]: 1 patients | Dose at which neutropenia was dose limiting ([1]; minimally pretreated patients): 2.0 mg m-2 day-1 | MTD ([1]; minimally pretreated patients): 2.0 mg m-2 day-1 | Nadir neutrophil count, median value ([1]; minimally pretreated, 2.0 mg m-2 day-1, range 0.02-3.92): 1.59e+09 L⁻¹ | Platelet nadir, median value ([1]; minimally pretreated, 2.0 mg m-2 day-1, range 7-219): 7.2e+10 L⁻¹ | Day of platelet nadir ([1]; minimally pretreated, 2.0 mg m-2 day-1, range 8-20): 15 days | Time of lowest nadir neutrophil count, median ([1]; minimally pretreated, 2.0 mg m-2 day-1, range 10-22): 16.5 days | Dose at which neutropenia and thrombocytopenia were limiting ([1]; more heavily pretreated patients): 1.5 mg m-2 day-1 | Time to recovery of phlebitis ([1]; peripheral vein infusions): 7 to 24 days | Median duration of grade IV neutropenia episodes ([1]; range 1-14): 5 days | Median duration of grade III or IV thrombocytopenia ([1]; range 1-10 days): 4 days | Recommended phase II dose ([1]; untreated/minimally pretreated patients): 1.75 mg m-2 day-1 | Number of minor responses (refractory solid tumours; 44 patients): two | Number of partial responses (refractory solid tumours; 44 patients): Three | Duration of partial response (refractory solid tumours; individual patients (breast, ovarian, colorectal cancer)): 8 weeks and 30 weeks and ≥ 34 weeks | Decrease in hepatic lesions (refractory solid tumours; patient with colorectal cancer): 44% | Decrease in hepatic lesions (refractory solid tumours; patient with hepatoma): 36% | EC50, half-maximal concentration (lactone Css) for % decrease in neutrophils (ANC) [2]: 0.75 ng/mL and 0.750 ng/mL | EC50, half-maximal concentration (lactone Css) for % decrease in platelets [2]: 1.141 ng/mL | Stability as a concentrate or as a more dilute solution [3]: stable | 50% growth inhibition concentration (melanoma cell line Lox): 0.592 ng/mL | Activity relative to topotecan (in vitro models): 2-5 times more active | Anti-tumour activity in xenografts [4]: confirmed the anti-tumour actixitv

From publication PMC2063170, “A phase I clinical and pharmacokinetic study of the new topoisomerase inhibitor GI147211 given as a 72-h continuous infusion” (British Journal of Cancer, 1998)
